Target: hSortilin (Homo sapiens (Human), UniProt Q99523)
Assay: Neurotensin scintillation proximity assay, [125I]-neurotensin
Settings: displacement of [125I]-neurotensin binding to 6his-Sortilin; average of at least 2 determinations; read-out: IC50 [125I]Neurotensin SPA

Sequence of hSortilin (Q99523 78-831): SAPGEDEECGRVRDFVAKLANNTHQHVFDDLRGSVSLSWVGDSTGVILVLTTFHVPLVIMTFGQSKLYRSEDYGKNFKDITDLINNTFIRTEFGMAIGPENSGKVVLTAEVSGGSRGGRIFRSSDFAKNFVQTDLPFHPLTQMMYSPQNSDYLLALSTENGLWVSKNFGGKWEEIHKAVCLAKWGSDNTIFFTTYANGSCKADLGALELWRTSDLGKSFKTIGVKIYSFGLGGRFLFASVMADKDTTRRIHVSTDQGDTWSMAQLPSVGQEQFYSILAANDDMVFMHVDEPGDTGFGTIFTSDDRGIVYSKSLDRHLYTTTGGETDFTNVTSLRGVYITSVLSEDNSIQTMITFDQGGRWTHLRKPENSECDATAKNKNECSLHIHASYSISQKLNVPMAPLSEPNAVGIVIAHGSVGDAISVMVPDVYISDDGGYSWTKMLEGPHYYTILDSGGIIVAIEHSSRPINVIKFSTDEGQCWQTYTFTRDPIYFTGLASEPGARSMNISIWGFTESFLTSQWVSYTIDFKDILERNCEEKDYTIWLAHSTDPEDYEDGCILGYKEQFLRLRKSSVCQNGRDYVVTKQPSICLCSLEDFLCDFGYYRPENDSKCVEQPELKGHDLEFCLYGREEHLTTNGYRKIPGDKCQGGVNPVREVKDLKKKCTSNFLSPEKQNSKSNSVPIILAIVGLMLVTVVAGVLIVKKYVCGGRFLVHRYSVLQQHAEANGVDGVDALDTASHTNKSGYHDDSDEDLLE

- IC50: 290 nM
SMILES: CC[C@H](C)[C@H](NC(C)=O)C(=O)N[C@@H](CCC(C)(C)C)C(=O)O [Example 16, (S)-2-((2S,3S)-2-Acetamido-3-methylpentanamido)-5,5-dimethylhexanoic Acid]
